According to US20250195530A1, “POLQ INHIBITORS” (ASTRAZENECA AB, priority 2022, published 2025):
Read-outs that look alike come from different tables or passages of the source.

System: DLD-1 BRCA2−/− cells
Experiment: Homologous recombination synthetic lethal inhibition of proliferation, DLD-1 BRCA2-/- (Cell Titre Glo 3D)
Type: cell-based
Details: Homo sapiens
Method in brief: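 Isogenic DLD-1 pair; BRCA2−/− seeded 3,000 cells/mL and read day 12, wt seeded 1,500 cells/mL and read day 7. 10-pt titration (top 10 μM, 3-fold), re-fed with compound day 6, 37 °C/5% CO2. CTG 3D endpoint; IC50 at 50% signal loss.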

[1] = DLD-1, DLD-1 BRCA2 −/− cells, mean, read-out: POLQ PD Prolif Lumin BRCA2 −/− mean pIC50 (converted)
[2] = DLD-1, first proliferation column (c5), DLD-1 BRCA2-/-, read-out: POLQ PD Prolif Lumin (converted)

Molecule `Cc1ncccc1Cn1c(-c2ccc(CC(N)=O)cc2Cl)nc2c(OC3(C)CC3)ncnc21` [Example T60, 2-(3-chloro-4-(6-(1-methylcyclopropoxy)-9-((2-methylpyridin-3-yl)methyl)-9H-purin-8-yl)phenyl)acetamide] has an IC50 [1] of 10 µM.
`Cc1ccnc(Cn2c(-c3ccc(OCC(N)=O)cc3Cl)nc3c(OC4(C)CC4)ncnc32)c1` [Example T61, 2-(3-chloro-4-(6-(1-methylcyclopropoxy)-9-((4-methylpyridin-2-yl)methyl)-9H-purin-8-yl)phenoxy)acetamide] showed an IC50 [1] of 0.251 µM.
`COC(=O)Nc1ccc(-c2nc3c(OC4(C)CC4)ncnc3n2Cc2cc(C)ccn2)c(Cl)c1` [Example T62, methyl (3-chloro-4-(6-(1-methylcyclopropoxy)-9-((4-methylpyridin-2-yl)methyl)-9H-purin-8-yl)phenyl)carbamate] gave an IC50 [1] of 0.251 µM.
Work on `COc1ccnc(Cn2c(-c3ccc(CC(N)=O)cc3Cl)nc3c(OC4(C)CC4)ncnc32)c1` [Example T63, 2-(3-chloro-4-(9-((4-methoxypyridin-2-yl)methyl)-6-(1-methylcyclopropoxy)-9H-purin-8-yl)phenyl)acetamide] yielded an IC50 [1] of 1 µM.
In the case of `Cc1ccnc(Cn2c(-c3ccc(CCO)cc3Cl)nc3c(OC4(C)CC4)ncnc32)c1` [Example T65, 2-(3-chloro-4-(6-(1-methylcyclopropoxy)-9-((4-methylpyridin-2-yl)methyl)-9H-purin-8-yl)phenyl)ethan-1-ol], the IC50 [1] is reported as 0.251 µM.
`CNC(=O)Nc1ccc(-c2nc3c(OC4(C)CC4)ncnc3n2Cc2cc(C)ccn2)c(Cl)c1` [Example T66, 1-(3-chloro-4-(6-(1-methylcyclopropoxy)-9-((4-methylpyridin-2-yl)methyl)-9H-purin-8-yl)phenyl)-3-methylurea] gave an IC50 [1] of 0.398 µM.
`CC1(Oc2ncnc3c2nc(-c2ccc(CC(N)=O)cc2Cl)n3Cc2noc(C(C)(C)C)n2)CC1` [Example T71, 2-(4-(9-((5-(tert-butyl)-1,2,4-oxadiazol-3-yl)methyl)-6-(1-methylcyclopropoxy)-9H-purin-8-yl)-3-chlorophenyl)acetamide] gave an IC50 [1] of 7.94 µM.
`CC1(Oc2ncnc3c2nc(-c2ccc(CC(N)=O)cc2Cl)n3Cc2cc(C#N)ccc2F)CC1` [Example T77, 2-(3-chloro-4-(9-(5-cyano-2-fluorobenzyl)-6-(1-methylcyclopropoxy)-9H-purin-8-yl)phenyl)acetamide] gave an IC50 [1] of 0.158 µM.
`CC1(Oc2ncnc3c2nc(-c2ccc(CC(N)=O)cc2Cl)n3Cc2ccc(F)cc2C#N)CC1` [Example T78, 2-(3-chloro-4-(9-(2-cyano-4-fluorobenzyl)-6-(1-methylcyclopropoxy)-9H-purin-8-yl)phenyl)acetamide] showed an IC50 [1] of 5.01 µM.
With `CC1(Oc2ncnc3c2nc(-c2ccc(CC(N)=O)cc2Cl)n3Cc2cc(F)ccc2C#N)CC1` [Example T79, 2-(3-chloro-4-(9-(2-cyano-5-fluorobenzyl)-6-(1-methylcyclopropoxy)-9H-purin-8-yl)phenyl)acetamide] the IC50 [1] was 0.158 µM.
`CC1(Oc2ncnc3c2nc(-c2ccc(CC(N)=O)cc2Cl)n3Cc2cccc(C#N)c2)CC1` [Example T81, 2-(3-chloro-4-(9-(3-cyanobenzyl)-6-(1-methylcyclopropoxy)-9H-purin-8-yl)phenyl)acetamide] showed an IC50 [1] of 0.2 µM.
Work on `CC1(Oc2ncnc3c2nc(-c2ccc(CC(N)=O)cc2Cl)n3Cc2ccccc2C#N)CC1` [Example T82, 2-(3-chloro-4-(9-(2-cyanobenzyl)-6-(1-methylcyclopropoxy)-9H-purin-8-yl)phenyl)acetamide] yielded an IC50 [1] of 0.316 µM.
`CC1(Oc2ncnc3c2nc(-c2ccc(CC(N)=O)cc2Cl)n3Cc2ccc(C#N)cc2)CC1` [Example T83, 2-(3-chloro-4-(9-(4-cyanobenzyl)-6-(1-methylcyclopropoxy)-9H-purin-8-yl)phenyl)acetamide] showed an IC50 [1] of 7.94 µM.
Work on `CC1(Oc2ncnc3c2nc(-c2ccc(OCCC(=O)O)cc2Cl)n3Cc2ccc(Cl)c(Cl)c2)CC1` [Example T84, 3-(3-chloro-4-(9-(3,4-dichlorobenzyl)-6-(1-methylcyclopropoxy)-9H-purin-8-yl)phenoxy)propanoic acid] yielded an IC50 [1] of 2 µM.
In the case of `Cc1ccnc(Cn2c(-c3ccc(C(=O)NCC(F)(F)F)cc3Cl)nc3c(OC4(C)CC4)ncnc32)c1` [Example T86, 3-chloro-4-(6-(1-methylcyclopropoxy)-9-((4-methylpyridin-2-yl)methyl)-9H-purin-8-yl)-N-(2,2,2-trifluoroethyl)benzamide], the IC50 [1] is reported as 0.501 µM.
With `CC1(Oc2ncnc3c2nc(-c2ccc(OCCC(=O)O)cc2Cl)n3Cc2ccccc2Cl)CC1` [Example T88, 3-(3-chloro-4-(9-(2-chlorobenzyl)-6-(1-methylcyclopropoxy)-9H-purin-8-yl)phenoxy)propanoic acid] the IC50 [1] was 0.794 µM.
`C[C@H](Oc1cccc(-c2nc3c(OC4(C)CC4)ncnc3n2Cc2cccc(Cl)c2)c1Cl)C(=O)O` [Example T90, (S)-2-(2-chloro-3-(9-(3-chlorobenzyl)-6-(1-methylcyclopropoxy)-9H-purin-8-yl)phenoxy)propanoic acid] was tested, and the IC50 [1] was 2 µM.
Work on `Cc1ccnc(Cn2c(-c3ccc(C(=O)NCC(F)F)cc3Cl)nc3c(OC4(C)CC4)ncnc32)c1` [Example T93, 3-chloro-N-(2,2-difluoroethyl)-4-(6-(1-methylcyclopropoxy)-9-((4-methylpyridin-2-yl)methyl)-9H-purin-8-yl)benzamide] yielded an IC50 [1] of 0.316 µM.
`CC1(Oc2ncnc3c2nc(-c2ccc(OCCCO)cc2Cl)n3Cc2cc(C(F)(F)F)ccn2)CC1` [Example T94, 3-(3-chloro-4-(6-(1-methylcyclopropoxy)-9-((4-(trifluoromethyl)pyridin-2-yl)methyl)-9H-purin-8-yl)phenoxy)propan-1-ol] showed an IC50 [1] of 0.2 µM.
Molecule `Cc1ccnc(Cn2c(-c3ccc(N4CCC4=O)cc3Cl)nc3c(OC4(C)CC4)ncnc32)c1` [Example T95, 1-(3-chloro-4-(6-(1-methylcyclopropoxy)-9-((4-methylpyridin-2-yl)methyl)-9H-purin-8-yl)phenyl)azetidin-2-one] has an IC50 [1] of 0.2 µM.
With `Cc1ccnc(Cn2c(-c3ccc(N4CCOC4=O)cc3Cl)nc3c(OC4(C)CC4)ncnc32)c1` [Example T96, 3-(3-chloro-4-(6-(1-methylcyclopropoxy)-9-((4-methylpyridin-2-yl)methyl)-9H-purin-8-yl)phenyl)oxazolidin-2-one] the IC50 [1] was 0.1 µM.
Molecule `CC1(Oc2ncnc3c2nc(-c2ccc(NCCC(=O)O)cc2Cl)n3Cc2cccc(Cl)c2)CC1` [Example T97, 3-((3-chloro-4-(9-(3-chlorobenzyl)-6-(1-methylcyclopropoxy)-9H-purin-8-yl)phenyl)amino)propanoic acid] has an IC50 [1] of 1.26 µM.
Work on `Cc1ccnc(Cn2c(-c3ccc(OCC(F)(F)CO)cc3Cl)nc3c(OC4(C)CC4)ncnc32)c1` [Example T98, 3-(3-chloro-4-(6-(1-methylcyclopropoxy)-9-((4-methylpyridin-2-yl)methyl)-9H-purin-8-yl)phenoxy)-2,2-difluoropropan-1-ol] yielded an IC50 [1] of 0.1 µM.
Work on `Cc1cccc(Cn2c(-c3ccc(CC(N)=O)cc3Cl)nc3c(OC4(C)CC4)ncnc32)c1` [Example T99, 2-(3-chloro-4-(9-(3-methylbenzyl)-6-(1-methylcyclopropoxy)-9H-purin-8-yl)phenyl)acetamide] yielded an IC50 [1] of 0.0794 µM.
In the case of `Cc1ccc(Cn2c(-c3ccc(CC(N)=O)cc3Cl)nc3c(OC4(C)CC4)ncnc32)cc1` [Example T100, 2-(3-chloro-4-(9-(4-methylbenzyl)-6-(1-methylcyclopropoxy)-9H-purin-8-yl)phenyl)acetamide], the IC50 [1] is reported as 0.794 µM.
`Cc1ccccc1Cn1c(-c2ccc(CC(N)=O)cc2Cl)nc2c(OC3(C)CC3)ncnc21` [Example T101, 2-(3-chloro-4-(9-(2-methylbenzyl)-6-(1-methylcyclopropoxy)-9H-purin-8-yl)phenyl)acetamide] gave an IC50 [1] of 0.501 µM.
In the case of `CC1(Oc2ncnc3c2nc(-c2ccc(CC(N)=O)cc2Cl)n3CCc2ccccc2)CC1` [Example T102, 2-(3-chloro-4-(6-(1-methylcyclopropoxy)-9-phenethyl-9H-purin-8-yl)phenyl)acetamide], the IC50 [1] is reported as 1.58 µM.
With `Cc1ccnc(Cn2c(-c3ccc(OC4COC4)cc3Cl)nc3c(OC4(C)CC4)ncnc32)c1` [Example T103, 8-(2-chloro-4-(oxetan-3-yloxy)phenyl)-6-(1-methylcyclopropoxy)-9-((4-methylpyridin-2-yl)methyl)-9H-purine] the IC50 [1] was 0.158 µM.
For `COc1cccc(Cn2c(-c3ccc(CC(N)=O)cc3Cl)nc3c(OC4(C)CC4)ncnc32)c1` [Example T105, 2-(3-chloro-4-(9-(3-methoxybenzyl)-6-(1-methylcyclopropoxy)-9H-purin-8-yl)phenyl)acetamide], the IC50 [2] was 0.631 µM.
`COc1ccc(Cn2c(-c3ccc(CC(N)=O)cc3Cl)nc3c(OC4(C)CC4)ncnc32)cc1` [Example T106, 2-(3-chloro-4-(9-(4-methoxybenzyl)-6-(1-methylcyclopropoxy)-9H-purin-8-yl)phenyl)acetamide] was tested, and the IC50 [2] was 0.631 µM.
With `Cc1ccnc(Cn2c(-c3ccc(OCCCF)cc3Cl)nc3c(OC4(C)CC4)ncnc32)c1` [Example T108, 8-(2-chloro-4-(3-fluoropropoxy)phenyl)-6-(1-methylcyclopropoxy)-9-((4-methylpyridin-2-yl)methyl)-9H-purine] the IC50 [2] was 0.126 µM.
`CNC(=O)Cc1ccc(-c2nc3c(OC4(C)CC4)ncnc3n2Cc2cc(C)ccn2)c(Cl)c1` [Example T113, 2-(3-chloro-4-(6-(1-methylcyclopropoxy)-9-((4-methylpyridin-2-yl)methyl)-9H-purin-8-yl)phenyl)-N-methylacetamide] showed an IC50 [2] of 0.316 µM.
`CCNC(=O)c1ccc(-c2nc3c(OC4(C)CC4)ncnc3n2Cc2cc(C)ccn2)c(Cl)c1` [Example T114, 3-chloro-N-ethyl-4-(6-(1-methylcyclopropoxy)-9-((4-methylpyridin-2-yl)methyl)-9H-purin-8-yl)benzamide] was tested, and the IC50 [2] was 0.316 µM.
For `Cc1ccnc(Cn2c(-c3ccc(N4CC(O)C4)cc3Cl)nc3c(OC4(C)CC4)ncnc32)c1` [Example T115, 1-(3-chloro-4-(6-(1-methylcyclopropoxy)-9-((4-methylpyridin-2-yl)methyl)-9H-purin-8-yl)phenyl)azetidin-3-ol], the IC50 [2] was 0.2 µM.
